Results published in article PMC8041823, “Structural comparison of Acinetobacter baumannii β-ketoacyl-acyl carrier protein reductases in fatty acid and aryl polyene biosynthesis” (Scientific Reports, 2021).

Molecular target: T1, AbApeQ (Acinetobacter baumannii, UniProt Z9NHK5QJZ4)
T1 construct: full-length, pET28a, N-terminal His-tag removed with thrombin, expressed in E. coli BL21 (DE3)
Assay: X-ray crystallography (co-crystallization)
Format: binding
Conditions: 1:3 molar ratio of NADPH; 0.2 M potassium sodium tartrate, 20% PEG 3350; active site; NADPH density in two of four molecules

## NC(=O)C1=CN([C@@H]2O[C@H](COP(=O)(O)OP(=O)(O)OC[C@H]3O[C@@H](n4cnc5c(N)ncnc54)[C@H](OP(=O)(O)O)[C@@H]3O)[C@@H](O)[C@H]2O)C=CC1 [NADPH]
  X-ray crystallography (co-crystallization): We obtained the structure of the AbApeQ–NADPH complex by co-crystallization of AbApeQ and NADPH.
